In US20220073525A1, “COMPOSITIONS FOR INHIBITING UBIQUITIN SPECIFIC PROTEASE 1” (FORMA Therapeutics, Inc., priority 2019, published 2022):

Target: USP1 (Homo sapiens, UniProt O94782)
Assay: Biochemical Assay for USP1 Inhibition (Ub-Rho 110 fluorescence)
Conditions: Table 5; 30 min preincubation, Enzyme 0.025 nM, Substrate Ub-Rho 110 25 nM; read-out: IC50 (μm)
In short: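 USP1 at 0.025 nM, preincubated 30 min with compound (25 μM to 1.3 nM, 10-point), then Ub-Rho 110 at 25 nM (<<Km) in Tris-HCl pH 8.0, 1 mM GSH, 0.03% BGG, 0.01% Triton X-100. Fluorescence read kinetically over 11 min; % inhibition versus no-enzyme and DMSO controls, IC50 from 4-parameter logistic fit.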

USP1, sequence (O94782 whole entry): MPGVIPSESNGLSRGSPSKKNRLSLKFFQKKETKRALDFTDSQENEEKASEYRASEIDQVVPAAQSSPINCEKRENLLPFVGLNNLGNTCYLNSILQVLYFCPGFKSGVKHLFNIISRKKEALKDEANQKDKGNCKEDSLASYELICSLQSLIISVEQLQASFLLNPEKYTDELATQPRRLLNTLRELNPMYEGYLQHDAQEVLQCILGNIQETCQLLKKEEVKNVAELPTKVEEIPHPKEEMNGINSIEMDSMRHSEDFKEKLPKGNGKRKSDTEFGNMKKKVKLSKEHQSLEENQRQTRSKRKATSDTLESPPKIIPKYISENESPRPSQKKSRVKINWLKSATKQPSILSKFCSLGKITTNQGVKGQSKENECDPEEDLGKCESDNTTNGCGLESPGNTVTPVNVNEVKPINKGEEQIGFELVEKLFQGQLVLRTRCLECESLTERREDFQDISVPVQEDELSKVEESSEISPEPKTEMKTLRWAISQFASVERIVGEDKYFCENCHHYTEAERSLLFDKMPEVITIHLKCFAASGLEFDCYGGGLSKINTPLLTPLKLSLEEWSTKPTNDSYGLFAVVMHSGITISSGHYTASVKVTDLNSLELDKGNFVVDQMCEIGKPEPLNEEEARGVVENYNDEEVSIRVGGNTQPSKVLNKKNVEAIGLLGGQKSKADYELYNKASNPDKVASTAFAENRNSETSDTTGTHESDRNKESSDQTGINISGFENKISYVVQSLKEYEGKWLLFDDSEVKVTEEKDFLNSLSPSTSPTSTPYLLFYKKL
USP1, sequence (Q8TAF3 whole entry partner): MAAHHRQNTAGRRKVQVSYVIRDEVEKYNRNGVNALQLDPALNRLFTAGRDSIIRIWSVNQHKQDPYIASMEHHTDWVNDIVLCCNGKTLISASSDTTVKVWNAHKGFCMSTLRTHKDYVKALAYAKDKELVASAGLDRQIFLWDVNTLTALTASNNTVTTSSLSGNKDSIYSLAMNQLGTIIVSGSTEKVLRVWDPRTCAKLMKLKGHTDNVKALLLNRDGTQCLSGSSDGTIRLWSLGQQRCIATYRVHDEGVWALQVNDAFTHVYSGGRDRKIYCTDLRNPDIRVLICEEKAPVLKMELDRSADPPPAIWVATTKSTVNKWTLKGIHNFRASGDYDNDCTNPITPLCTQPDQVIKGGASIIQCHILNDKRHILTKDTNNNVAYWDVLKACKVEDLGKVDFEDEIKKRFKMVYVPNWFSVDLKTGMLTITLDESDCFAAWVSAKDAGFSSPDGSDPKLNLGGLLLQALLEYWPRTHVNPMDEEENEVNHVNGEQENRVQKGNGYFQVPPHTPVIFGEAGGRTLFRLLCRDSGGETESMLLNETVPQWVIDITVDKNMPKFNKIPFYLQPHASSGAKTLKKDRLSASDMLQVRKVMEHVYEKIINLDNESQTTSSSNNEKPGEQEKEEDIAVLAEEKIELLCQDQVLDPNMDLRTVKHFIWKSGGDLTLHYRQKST

SMILES	IC50 [µM]
Cc1cc(Cl)n(-c2ccc(N3CCn4c(C)nc(-c5cccnc5OC(F)F)c4C3)cc2)n1 [Compound 82, 3-{7-[4-(5-chloro-3-methyl-1H-pyrazol-1-yl)phenyl]-3-methyl-5H,6H,7H,8H-imidazo[1,5-a]pyrazin-1-yl}-2-(difluoromethoxy)pyridine]	≤ 1
Cc1nc(-c2cccnc2C(C)C)c2n1CCN(c1cnc(C#N)nc1)C2 [Compound 83, 5-{3-methyl-1-[2-(propan-2-yl)pyridin-3-yl]-5H,6H,7H,8H-imidazo[1,5-a]pyrazin-7-yl}pyrimidine-2-carbonitrile]	> 25
COc1nc(-c2cccnc2C(C)C)c2n1CCN(c1ccc(-c3nc(C(F)(F)F)cn3C)cc1)C2 [Compound 84, 3-(3-methoxy-7-{4-[1-methyl-4-(trifluoromethyl)-1H-imidazol-2-yl]phenyl}-5H,6H,7H,8H-imidazo[1,5-a]pyrazin-1-yl)-2-(propan-2-yl)pyridine]	≤ 1
Cc1nc(-c2cccnc2C(C)C)c2n1CCN(c1ccc(-c3nc(C(F)(F)F)cn3C)cc1)C2C (stereo not shown) [Compound 85, 3-[3,8-dimethyl-7-{4-[1-methyl-4-(trifluoromethyl)-1H-imidazol-2-yl]phenyl}-5H,6H,7H,8H-imidazo[1,5-a]pyrazin-1-yl]-2-(propan-2-yl)pyridine]	≤ 1
Cc1nc(-c2cccnc2C(C)C)c2n1CCN(c1ccc(-c3nc(C(F)(F)F)cn3C)cn1)C2C (stereo not shown) [Compound 86, 2-[3,8-dimethyl-1-[2-(propan-2-yl)pyridin-3-yl]-5H,6H,7H,8H-imidazo[1,5-a]pyrazin-7-yl]-5-[1-methyl-4-(trifluoromethyl)-1H-imidazol-2-yl]pyridine]	≤ 1

Same assay, conditions: Table 6, additional compounds; 30 min preincubation, Enzyme 0.025 nM, Substrate Ub-Rho 110 25 nM; read-out: IC50

SMILES	IC50 [µM]
Cc1nc(-c2cccnc2C(C)C)c2n1CCCN(Cc1ccc(-c3nc(C(F)(F)F)cn3C)cc1)C2 [Compound C-2, 1-(2-isopropylpyridin-3-yl)-3-methyl-8-(4-(1-methyl-4-(trifluoromethyl)-1H-imidazol-2-yl)benzyl)-6,7,8,9-tetrahydro-5H-imidazo[1,5-a][1,4]diazepine]	1 to 10
Cc1nc(-c2cccnc2C(C)C)c2n1CC(=O)N(c1ccc(-c3nc(C(F)(F)F)cn3C)cc1)C2 [Compound C-3, 1-(2-isopropylpyridin-3-yl)-3-methyl-7-(4-(1-methyl-4-(trifluoromethyl)-1H-imidazol-2-yl)phenyl)-7,8-dihydroimidazo[1,5-a]pyrazin-6(5H)-one]	> 25
Cc1nc(-c2ccccc2C(C)C)n2cc(N3CCC(c4nc(C(F)(F)F)cn4C)CC3)ccc12 [Compound C-4, 3-(2-isopropylphenyl)-1-methyl-6-(4-(1-methyl-4-(trifluoromethyl)-1H-imidazol-2-yl)piperidin-1-yl)imidazo[1,5-a]pyridine]	> 25
Cc1nc(-c2cccnc2C(C)C)c2n1CCN(c1ccc(-c3nc(C(F)(F)F)cn3C)cc1)C2=O [Compound C-5, 1-(2-isopropylpyridin-3-yl)-3-methyl-7-(4-(1-methyl-4-(trifluoromethyl)-1H-imidazol-2-yl)phenyl)-6,7-dihydroimidazo[1,5-a]pyrazin-8(5H)-one]	> 25
Cc1nc(-c2cccnc2C(C)C)c2n1CCN(C(=O)c1ccc(-c3ccnn3C(C)C)nc1)C2 [Compound C-6, 3-(3-methyl-7-{6-[1-(propan-2-yl)-1H-pyrazol-5-yl]pyridine-3-carbonyl}-5H,6H,7H,8H-imidazo[1,5-a]pyrazin-1-yl)-2-(propan-2-yl)pyridine]	> 25
